Assay results as given in ChEMBL document CHEMBL3885861, “Open TG-GATES”.

Organism: Rattus norvegicus
Assay: Open TG-GATES - Regimen: Daily Repeat
Assay type: toxicity, organism-based, Sprague-Dawley
Design: regimen Daily Repeat, gender Male, age 6 weeks
Conditions: in vivo, po, route gavage; for APTT / Bas / Eos / Fbg / Ht / Lym / MCH / MCHC / MCV / Mono / Neu / PT / Plat / RBC / Ret / WBC / Hb: tissue Blood; for KIDNEY_L / KIDNEY_R / KIDNEY_TOTAL: tissue Kidney; for LIVER: tissue Liver; for ALP / AST / BUN / CRE / Ca / Cl / DBIL / GLC / IP / LDH / Na / PL / RALB / TBIL / TC / TG / TP / gamma-GTP: tissue Plasma
[1] = 0 mg/kg, 72 h, dose level Control, time 3 day
[2] = 0 mg/kg, […], dose level Control, time 7 day
[3] = 0 mg/kg, […], dose level Control, time 14 day
[4] = 0 mg/kg, […], dose level Control, time 28 day

CC(=O)N1CCN(c2ccc(OCC3COC(Cn4ccnc4)(c4ccc(Cl)cc4Cl)O3)cc2)CC1 (stereo unspecified) [KETOCONAZOLE]
TERMINAL_BW [1]: 231 g
APTT [1]: 20.9 s
Bas [1]: 0%
Eos [1]: 0.8%
Fbg [1]: 294.6 mg/dL
Ht [1]: 38.3%
Lym [1]: 82%
MCH [1]: 21.7 pg
MCHC [1]: 34.3%
MCV [1]: 63.3 fL
Mono [1]: 2.2%
Neu [1]: 14.2%
PT [1]: 16.5 s
Plat [1]: 118.7 x10_4/uL
RBC [1]: 604.8 x10_4/ul
Ret [1]: 6.5%
WBC [1]: 106.4 x10_2/uL
KIDNEY_L [1]: 1.1 g
KIDNEY_R [1]: 1.1 g
KIDNEY_TOTAL [1]: 2.1 g
LIVER [1]: 10.8 g
ALP [1]: 1650.6 IU/L
AST [1]: 68 IU/L
BUN [1]: 18.6 mg/dL
CRE [1]: 0.2 mg/dL
Ca [1]: 10.8 mg/dL
Cl [1]: 106.2 meq/L
DBIL [1]: 0 mg/dL
GLC [1]: 184.2 mg/dL
IP [1]: 5.9 mg/dL
LDH [1]: 222.4 IU/L
Na [1]: 140.2 meq/L
PL [1]: 142.6 mg/dL
RALB [1]: 3 g/dL
TBIL [1]: 0.012 mg/dL
TC [1]: 71 mg/dL
TG [1]: 85.2 mg/dL
TP [1]: 5.6 g/dL
gamma-GTP [1]: 1.4 IU/L
TERMINAL_BW [2]: 269.3 g
TERMINAL_BW [3]: 301.1 g
TERMINAL_BW [4]: 376.7 g
APTT [2]: 22.6 s
Bas [2]: 0%
Eos [2]: 1%
Fbg [2]: 301.6 mg/dL
Hb [2]: 13.6 g/dL
Ht [2]: 40.1%
Lym [2]: 78.4%
MCH [2]: 21.1 pg
MCHC [2]: 34%
Mono [2]: 2%
Neu [2]: 17.8%
PT [2]: 16.1 s
Plat [2]: 91.9 x10_4/uL
RBC [2]: 645.4 x10_4/ul
Ret [2]: 5.5%
WBC [2]: 94.3 x10_2/uL
APTT [3]: 22.2 s
Bas [3]: 0%
Eos [3]: 0.8%
Fbg [3]: 298 mg/dL
Hb [3]: 14 g/dL
Ht [3]: 40.9%
Lym [3]: 81.4%
MCH [3]: 20.5 pg
MCHC [3]: 34.3%
MCV [3]: 59.8 fL
Mono [3]: 1.6%
Neu [3]: 15.4%
PT [3]: 16.1 s
Plat [3]: 113.5 x10_4/uL
RBC [3]: 685 x10_4/ul
Ret [3]: 4.1%
WBC [3]: 110.9 x10_2/uL
Bas [4]: 0%
Eos [4]: 1%
Fbg [4]: 291.4 mg/dL
Hb [4]: 14.9 g/dL
Ht [4]: 43.4%
Lym [4]: 83.8%
MCH [4]: 19.1 pg
MCHC [4]: 34.3%
MCV [4]: 55.8 fL
Mono [4]: 1.6%
Neu [4]: 11.8%
PT [4]: 17 s
Plat [4]: 107.7 x10_4/uL
RBC [4]: 779.8 x10_4/ul
Ret [4]: 2.5%
WBC [4]: 126.2 x10_2/uL
KIDNEY_L [2]: 1.2 g
KIDNEY_R [2]: 1.2 g
KIDNEY_TOTAL [2]: 2.4 g
KIDNEY_L [3]: 1.1 g
KIDNEY_R [3]: 1.2 g
KIDNEY_TOTAL [3]: 2.3 g
KIDNEY_L [4]: 1.3 g
KIDNEY_R [4]: 1.4 g
KIDNEY_TOTAL [4]: 2.7 g
LIVER [2]: 12.2 g
LIVER [4]: 15.3 g
ALP [2]: 1766.8 IU/L
AST [2]: 69.2 IU/L
BUN [2]: 19 mg/dL
CRE [2]: 0.2 mg/dL
Ca [2]: 10.8 mg/dL
Cl [2]: 106.4 meq/L
DBIL [2]: 0 mg/dL
GLC [2]: 182.8 mg/dL
IP [2]: 6.7 mg/dL
LDH [2]: 176.2 IU/L
Na [2]: 141.8 meq/L
PL [2]: 156.8 mg/dL
RALB [2]: 3.2 g/dL
TBIL [2]: 0.002 mg/dL
TC [2]: 80.6 mg/dL
TG [2]: 102.8 mg/dL
TP [2]: 5.8 g/dL
gamma-GTP [2]: 1.2 IU/L
ALP [3]: 1657 IU/L
AST [3]: 71.2 IU/L
BUN [3]: 19 mg/dL
CRE [3]: 0.2 mg/dL
Ca [3]: 10.3 mg/dL
Cl [3]: 107.2 meq/L
DBIL [3]: 0 mg/dL
GLC [3]: 178.4 mg/dL
IP [3]: 6.4 mg/dL
LDH [3]: 207.6 IU/L
Na [3]: 142.4 meq/L
PL [3]: 167.6 mg/dL
RALB [3]: 3 g/dL
TBIL [3]: 0.002 mg/dL
TG [3]: 140.8 mg/dL
TP [3]: 5.8 g/dL
gamma-GTP [3]: 1 IU/L
ALP [4]: 1167.6 IU/L
AST [4]: 73.6 IU/L
BUN [4]: 19.6 mg/dL
CRE [4]: 0.2 mg/dL
Ca [4]: 10.3 mg/dL
Cl [4]: 106.8 meq/L
DBIL [4]: 0 mg/dL
GLC [4]: 190.2 mg/dL
IP [4]: 5.5 mg/dL
LDH [4]: 168.4 IU/L
Na [4]: 141.8 meq/L
PL [4]: 144.4 mg/dL
RALB [4]: 3.1 g/dL
TBIL [4]: 0.016 mg/dL
TC [4]: 66 mg/dL
TG [4]: 153.2 mg/dL
TP [4]: 6 g/dL
gamma-GTP [4]: 1.2 IU/L
TERMINAL_BW (10 mg/kg, 72 h, dose level Low, time 3 day): 236.3 g
